Activity calls are given as the source filed them. The calls are words filed in the database; no cut-off is given here.
How the values were obtained:
[1] = Cytotoxicity against human GES1 cells assessed as inhibition of cell proliferation measured after 72 hrs by MTT assay; type: toxicity, cell-based
MGC-803 [2] = test: Cell cycle arrest in human MGC-803 cells assessed as accumulation of cells at G2/M phase at 2.5 uM measured after 24 hrs by Flowcytometry assay (reference value: 13.71%); type: functional
MGC-803 [3] = test: Cell cycle arrest in human MGC-803 cells assessed as accumulation of cells at S phase at 7.5 uM measured after 24 hrs by Flowcytometry assay (reference value: 36.51%); type: functional
MGC-803 [4] = test: Inhibition of cell migration in human MGC-803 cells at 5 uM measured after 48 hrs by wound healing assay based inverted microscopic analysis; type: functional
MGC-803 [5] = test: Induction of apoptosis in human MGC-803 cells assessed as early apoptotic cells at 2.5 uM measured after 24 hrs by AnnexinV/FITC staining based flow cytometry method (reference value: 1.3%); type: functional
MGC-803 [6] = test: Induction of apoptosis in human MGC-803 cells assessed as late apoptotic cells at 5 uM measured after 24 hrs by AnnexinV/FITC staining based flow cytometry method (reference value: 2%); type: functional
MGC-803 [7] = test: Induction of apoptosis in human MGC-803 cells assessed as late apoptotic cells at 7.5 uM measured after 24 hrs by AnnexinV/FITC staining based flow cytometry method (reference value: 2%); type: functional
MGC-803 [8] = test: Induction of apoptosis in human MGC-803 cells assessed as viable cells at 2.5 uM measured after 48 hrs by AnnexinV/FITC staining based flow cytometry method (reference value: 97.4%); type: functional; conditions: read-out: Activity
MGC-803 [9] = test: Induction of apoptosis in human MGC-803 cells assessed as early apoptotic cells at 2.5 uM measured after 48 hrs by AnnexinV/FITC staining based flow cytometry method (reference value: 1.5%); type: functional
MGC-803 [10] = test: Induction of apoptosis in human MGC-803 cells assessed as late apoptotic cells at 2.5 uM measured after 48 hrs by AnnexinV/FITC staining based flow cytometry method (reference value: 0.9%); type: functional
MGC-803 [11] = test: Induction of apoptosis in human MGC-803 cells assessed as late apoptotic cells at 7.5 uM measured after 48 hrs by AnnexinV/FITC staining based flow cytometry method (reference value: 0.9%); type: functional
HGC-27 [12] = test: Induction of apoptosis in human HGC-27 cells assessed as early apoptotic cells at 3 uM measured after 24 hrs by AnnexinV/FITC staining based flow cytometry method (reference value: 0.7%); type: functional
HGC-27 [13] = test: Induction of apoptosis in human HGC-27 cells assessed as early apoptotic cells at 6 uM measured after 24 hrs by AnnexinV/FITC staining based flow cytometry method (reference value: 0.7%); type: functional
HGC-27 [14] = test: Induction of apoptosis in human HGC-27 cells assessed as late apoptotic cells at 9 uM measured after 24 hrs by AnnexinV/FITC staining based flow cytometry method (reference value: 2.4%); type: functional
HGC-27 [15] = test: Induction of apoptosis in human HGC-27 cells assessed as necrotic cells at 9 uM measured after 24 hrs by AnnexinV/FITC staining based flow cytometry method (reference value: 1.2%); type: functional
HGC-27 [16] = test: Induction of apoptosis in human HGC-27 cells assessed as late apoptotic cells at 3 uM measured after 48 hrs by AnnexinV/FITC staining based flow cytometry method (reference value: 1%); type: functional
HGC-27 [17] = test: Induction of apoptosis in human HGC-27 cells assessed as necrotic cells at 3 uM measured after 48 hrs by AnnexinV/FITC staining based flow cytometry method (reference value: 0.1%); type: functional
HGC-27 [18] = test: Induction of apoptosis in human HGC-27 cells assessed as viable cells at 9 uM measured after 48 hrs by AnnexinV/FITC staining based flow cytometry method (reference value: 93.18%); type: functional; conditions: read-out: Activity
HGC-27 [19] = test: Induction of apoptosis in human HGC-27 cells assessed as necrotic cells at 9 uM measured after 48 hrs by AnnexinV/FITC staining based flow cytometry method (reference value: 0.1%); type: functional
MGC-803 [20] = test: Induction of apoptosis in human MGC-803 cells assessed as reduction of mitochondrial membrane potential at 5 uM measured after 24 hrs by JC-1 staining based Flowcytometry assay (reference value: 3.8%); type: functional; set-up: scale not given: the % may be the effect or the level left
HGC-27 [21] = test: Induction of apoptosis in human HGC-27cells assessed as reduction of mitochondrial membrane potential at 6 uM measured after 24 hrs by JC-1 staining based Flowcytometry assay (reference value: 2.4%); type: functional; set-up: scale not given: the % may be the effect or the level left
MGC-803 [22] = test: Induction of apoptosis in human MGC-803 cells assessed as upregulation of Bax at 2.5 to 7.5 uM measured after 24 hrs by Western blot assay; type: functional, cell-based; conditions: dose 2.5-7.5 µM
MGC-803 [23] = test: Induction of apoptosis in human MGC-803 cells assessed as ROS levels at 2.5 uM measured after 24 hrs by DCFH-DA staining based flow cytometry assay (reference value: 3.3%); type: functional
HGC-27 [24] = test: Induction of apoptosis in human HGC-27 cells assessed as ROS levels at 3 uM measured after 24 hrs by DCFH-DA staining based flow cytometry assay (reference value: 6.8%); type: functional
[25] = target: T1, NEDD8-activating enzyme E1 regulatory subunit (Homo sapiens) (UniProt Q13564); test: Inhibition of NAE-mediated neddylation in human MGC-803 cells assessed as cullin1-Nedd8 adduct formation at 2.5 to 7.5 uM measured after 24 hrs by western blot assay; type: cell-based; conditions: dose 2.5-7.5 µM
T1 sequence (whole entry): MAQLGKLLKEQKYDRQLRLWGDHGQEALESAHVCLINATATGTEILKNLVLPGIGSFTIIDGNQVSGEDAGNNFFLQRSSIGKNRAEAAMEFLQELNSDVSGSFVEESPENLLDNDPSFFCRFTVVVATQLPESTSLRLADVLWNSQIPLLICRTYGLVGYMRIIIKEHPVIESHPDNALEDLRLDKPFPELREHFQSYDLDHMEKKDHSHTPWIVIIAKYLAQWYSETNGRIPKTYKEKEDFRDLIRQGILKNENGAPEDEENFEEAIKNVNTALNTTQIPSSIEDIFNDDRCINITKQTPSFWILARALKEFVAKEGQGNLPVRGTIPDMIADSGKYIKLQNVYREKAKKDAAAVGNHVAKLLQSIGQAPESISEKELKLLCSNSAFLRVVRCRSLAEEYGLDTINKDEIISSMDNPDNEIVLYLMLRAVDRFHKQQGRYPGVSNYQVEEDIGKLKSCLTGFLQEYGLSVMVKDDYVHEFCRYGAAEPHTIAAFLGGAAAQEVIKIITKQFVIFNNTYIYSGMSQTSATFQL

[26] = target: T1, NEDD8-activating enzyme E1 regulatory subunit (Homo sapiens); test: Inhibition of NAE-mediated neddylation in human MGC-803 cells assessed as cullin3-Nedd8 adduct formation at 2.5 to 7.5 uM measured after 24 hrs by western blot assay; type: cell-based; conditions: dose 2.5-7.5 µM
[27] = target: T1, NEDD8-activating enzyme E1 regulatory subunit (Homo sapiens); test: Inhibition of NAE-mediated neddylation in human MGC-803 cells assessed as cullin5-Nedd8 adduct formation at 2.5 to 7.5 uM measured after 24 hrs by western blot assay; type: cell-based; conditions: dose 2.5-7.5 µM
[28] = target: T1, NEDD8-activating enzyme E1 regulatory subunit (Homo sapiens); test: Inhibition of NAE-mediated neddylation in human MGC-803 cells assessed as cullin4B-Nedd8 adduct formation at 2.5 to 7.5 uM measured after 24 hrs by western blot assay; type: cell-based; conditions: dose 2.5-7.5 µM
[29] = target: T1, NEDD8-activating enzyme E1 regulatory subunit (Homo sapiens); test: Inhibition of NAE-mediated neddylation in human MGC-803 cells assessed as cullin2-Nedd8 adduct formation at 2.5 to 7.5 uM measured after 24 hrs by western blot assay; type: cell-based; conditions: dose 2.5-7.5 µM

With `CCCCCc1ccc(NC(=O)C2CCN(C/C=C/c3ccccc3)CC2)cc1` as the compound, how does the IC50 at 72 h [1] read?
The IC50 at 72 h was 8.7 µM.

What about the Activity (MGC-803 [2]) of the same compound?
The Activity was 17.77%.

And the Activity (MGC-803 [3])?
The Activity was 33.6%.

What about the inhibition at 5 µM (MGC-803 [4]) of the same compound?
The inhibition at 5 µM was 40%.

And the Activity (MGC-803 [5])?
The Activity was 2.1%.

And the Activity (MGC-803 [6])?
Its Activity is 10.9%.

What about the Activity (MGC-803 [7]) of the same compound?
The Activity was 82.4%.

What about the viability at 2.5 µM (MGC-803 [8]) of the same compound?
The viability at 2.5 µM was 50.6%.

What about the Activity (MGC-803 [9]) of the same compound?
Its Activity is 3%.

And the Activity (MGC-803 [10])?
The Activity was 43.5%.

What about the Activity (MGC-803 [11]) of the same compound?
The Activity was 95.6%.

What about the Activity (HGC-27 [12]) of the same compound?
The Activity was 7.5%.

And the Activity (HGC-27 [13])?
The Activity was 23.1%.

And the Activity (HGC-27 [14])?
Its Activity is 74%.

And the Activity (HGC-27 [15])?
Its Activity is 2.7%.

And the Activity (HGC-27 [16])?
The Activity was 7%.

And the Activity (HGC-27 [17])?
Its Activity is 2.4%.

What about the viability at 9 µM (HGC-27 [18]) of the same compound?
Its viability at 9 µM is 0.3%.

And the Activity (HGC-27 [19])?
Its Activity is 0%.

And the Activity (MGC-803 [20])?
The Activity was 17.4%.

What about the Activity (HGC-27 [21]) of the same compound?
The Activity was 45.3%.

What about the Activity (MGC-803 [22]) of the same compound?
Its Activity is “Dose-Dependent Effect”.

And the Activity (MGC-803 [23])?
The Activity was 4%.

What about the Activity (HGC-27 [24]) of the same compound?
Its Activity is 11.4%.

What about the inhibition [25] of the same compound?
The inhibition was “Active”.

And the inhibition [26]?
The inhibition was “Active”.

And the inhibition [27]?
Its inhibition is “Active”.

What about the inhibition [28] of the same compound?
The inhibition was “inactive”.

What about the inhibition [29] of the same compound?
The inhibition was “inactive”.
